Where two headings read alike, the source gives them in different places.
How the values were obtained:
[1] = test system: purified primary human T cells stimulated using immobilized anti-CD3 antibody; assay: T-cell costimulation, IL-2 production; format: cell-based
Description: CRBN ubiquitination was measured in HEK293T cells, which were transfected with an amino-terminal His-biotin-tagged CRBN construct, then preincubated with compounds for one hour followed by treatment with the MG132 proteasome inhibitor (to arrest degradation of ubiquitinated proteins). Cells were lysed and processed to measure CRBN ubiquitination by SDS-PAGE and immunoblot analysis using an anti-ubiquitin antibody. Cell proliferation studies were conducted in lenalidomide-sensitive and refractory multiple myeloma cells. […] T-cell costimulation was measured in purified primary human T cells stimulated using immobilized anti-CD3 antibody in cell culture for 2 days, and cytokine secretion was measured by ELISA.

[2] = test system: NCI-H929 cells (Control, Revlimid-sensitive, parental); assay: Proliferation and viability by 7-AAD staining; format: cell-based; details: Homo sapiens, NCI-H929, 120 h, read-out: IC50, proliferation
[3] = test system: Revlimid-resistant NCI-H929 R1-10; assay: Proliferation and viability by 7-AAD staining; format: cell-based; details: Homo sapiens, NCI-H929, 120 h, read-out: IC50, proliferation
[4] = test system: Revlimid-resistant NCI-H929 R2-10; assay: Proliferation and viability by 7-AAD staining; format: cell-based; details: Homo sapiens, NCI-H929, 120 h, read-out: IC50, proliferation
[5] = test system: Revlimid-resistant NCI-H929 R3-10; assay: Proliferation and viability by 7-AAD staining; format: cell-based; details: Homo sapiens, NCI-H929, 120 h, read-out: IC50, proliferation
[6] = test system: Revlimid-resistant NCI-H929 R4-10; assay: Proliferation and viability by 7-AAD staining; format: cell-based; details: Homo sapiens, NCI-H929, 120 h, read-out: IC50, proliferation
[7] = test system: megakaryocyte progenitor cells (normal human bone marrows); assay: Megakaryocyte colony formation assay; format: cell-based; details: Homo sapiens, 14-16 days
Description: Colony formation assay was conducted with normal human bone marrows treated in semi-solid collagen matrix with compound/IL-3/IL-6/Tpo for 14-16 days, and the results are summarized in Table 7.

[8] = molecular target: T1, endogeneous human CRBN (U266 extract) (Homo sapiens, UniProt Q96SW2); assay: Thalidomide affinity bead competition assay; format: binding; details: 3 μM
T1 construct: endogenous in cells; host or cells: U266 human multiple myeloma cells (NP-40 lysate)
Description: Affinity beads coupled to a thalidomide acid analog were incubated with the U266 extracts and, after extensive washing of the beads, the bound proteins were eluted. CRBN binding to the thalidomide-coupled affinity beads was determined by quantitative CRBN immunoblot determination.

[9] = test system: normal donor peripheral blood mononuclear cells; assay: Immunoglobulin M and G production; format: cell-based; details: Homo sapiens, PBMC
Description: Immunoglobulin M and G (“IgG and IgM”) production was measured from normal donor peripheral blood mononuclear cells by culturing in the presence of the B cell differentiation factors recombinant human IL-2 (20U/mL), IL-10 (50 ng/mL), IL-15 (10 ng/mL), His-tagged CD40 Ligand (50 ng/mL), polyHistidine mouse IgG1 antibody (5 μg/mL), and ODN 2006-Human TLR9 ligand (10 μg/mL) for 4 days, followed by IL-2, IL-10, IL-15, and IL-6 (50 ng/mL) for an additional 3 days. IgM and IgG were measured by ELISA.

[10] = test system: DoHH2 Follicular Lymphoma xenograft; assay: DoHH2 Follicular Lymphoma xenograft model; format: in vivo, mouse
[11] = test system: WSU-DLCL2 DLBCL xenograft; assay: WSU-DLCL2 DLBCL xenograft model
[12] = Bone Marrow ID 0090128, read-out: Immature Colony IC50
[13] = Bone Marrow ID 0090128, read-out: Intermediate Colony IC50
[14] = Bone Marrow ID 0090616, read-out: Immature Colony IC50
[15] = Bone Marrow ID 0090616, read-out: Intermediate Colony IC50
[16] = Bone Marrow ID 0090714, read-out: Immature Colony IC50
[17] = Bone Marrow ID 0090714, read-out: Intermediate Colony IC50
[18] = 30 mg/kg monotherapy, Compound I-S: 84% S-enantiomer, 16% R-enantiomer
[19] = 30 mg/kg with Rituxan 1 mg/kg, Compound I-S: 84% S-enantiomer, 16% R-enantiomer
[20] = 40 mg/kg monotherapy, Compound I-S: 91% S-enantiomer, 9% R-enantiomer

With Nc1cccc2c1C(=O)N(C1CCC(=O)NC1=O)C2=O (stereo not shown) [Pomalidomide, pomalidomide, reference compound] the EC50 [1] was 0.01 µM, the IC50 [2] was 0.09 µM and the IC50 [3] was > 30 µM. The IC50 [4] was > 30 µM, the IC50 [5] was 6.3 µM and the IC50 [6] was 14 µM. For the same compound, the IC50 [7, 12] was > 10 µM, the IC50 [7, 13] was > 10 µM and the IC50 [7, 14] was 0.35 µM. The IC50 [7, 15] was 1.4 µM, the IC50 [7, 16] was 1 µM and the IC50 [7, 17] was > 10 µM. For the same compound, the “less CRBN bound to the affinity beads” value [8] was “approximately 50%”, the IC50 ([9]; read-out: IgG production IC50) was 0.063 µM and the IC50 ([9]; read-out: IgM production IC50) was 0.017 µM.

For Nc1cccc2c1CN(C1CCC(=O)NC1=O)C2=O (stereo not shown) [Revlimid, lenalidomide, reference compound], the IC50 [7, 12] was 1.3 µM, the IC50 [7, 13] was > 10 µM and the IC50 [7, 14] was 0.56 µM. The IC50 [7, 15] was 1.3 µM, the IC50 [7, 16] was 0.41 µM and the IC50 [7, 17] was > 10 µM. For the same compound, the “% TGD ((T − C)/C)” value [10, 18] was 12%, the “% TGI at D12 (T/C)” value [10, 18] was 19% and the “% TGD ((T − C)/C)” value [10, 19] was 52%. For the same compound, the “% TGI at D12 (T/C)” value [10, 19] was 54%, the “% TGD ((T − C)/C)” value [10, 20] was 17% and the “% TGI at D12 (T/C)” value [10, 20] was 49%. The “Tumor Free Survival on Day 44” value ([11]; 30 mg/kg in combination with Rituxan 2 mg/kg iv qw) was 6/9.

rituximab [Rituxan, reference compound] was tested, and the “% TGD ((T − C)/C)” value ([10]; 1 mg/kg monotherapy) was 34%, the “% TGI at D12 (T/C)” value ([10]; 1 mg/kg monotherapy) was 19% and the “Tumor Free Survival on Day 44” value ([11]; Rituxan 2 mg/kg iv qw alone) was 2/10.

Reference: patent US20260007679A1, “METHODS OF TREATING CANCER USING 3-(4-((4-(MORPHOLINOMETHYL)BENZYL)OXY)-1-OXOISOINDOLIN-2-YL)PIPERIDINE-2,6-DIONE” (Celgene Corporation, priority 2012, published 2026)
